# From US9139842B2, “Methods and compositions for targeting sequences of interest to the chloroplast” (PIONEER HI-BRED INTERNATIONAL, INC., priority 2010, dated 2015)
# B1: maize HPPD: Maize WT HPPD (from WO1997049816 SEQ ID NO: 11), SEQ ID NO: 10 (protein)
# chain: MPPTPTAAAAGAAVAAASAAEQAAFRLVGHRNFVRFNPRSDRFHTLAFHHVELWCADAASAAGRFSFGLGAPLAARSDLSTGNSAHASLLLRSGSLSFLFTAPYAHGADAATAALPSFSAAAARRFAADHGLAVRAVALRVADAEDAFRASVAAGARPAFGPVDLGRGFRLAEVELYGDVVLRYVSYPDGAAGEPFLPGFEGVASPGAADYGLSRFDHIVGNVPELAPAAAYFAGFTGFHEFAEFTTEDVGTAESGLNSMVLANNSENVLLPLNEPVHGTKRRSQIQTFLDHHGGPGVQHMALASDDVLRTLREMQARSAMGGFEFMAPPTSDYYDGVRRRAGDVLTEAQIKECQELGVLVDRDDQGVLLQIFTKPVGDRPTLFLEIIQRIGCMEKDEKGQEYQKGGCGGFGKGNFSQLFKSIEDYEKSLEAKQAAAAAAAQGS
# modifications: Zea mays
# B2: Maize wt: wild-type maize HPPD protein (SEQ ID NO: 9) expressed in E. coli (protein)
# chain: MGPTPTAAAAGAAVAAASAAEQAAFRLVGHRNFVRFNPRSDRFHTLAFHHVELWCADAASAAGRFSFGLGAPLAARSDLSTGNSAHASLLLRSGSLSFLFTAPYAHGADAATAALPSFSAAAARRFAADHGLAVRAVALRVADAEDAFRASVAAGARPAFGPVDLGRGFRLAEVELYGDVVLRYVSYPDGAAGEPFLPGFEGVASPGAADYGLSRFDHIVGNVPELAPAAAYFAGFTGFHEFAEFTTEDVGTAESGLNSMVLANNSENVLLPLNEPVHGTKRRSQIQTFLDHHGGPGVQHMALASDDVLRTLREMQARSAMGGFEFMAPPTSDYYDGVRRRAGDVLTEAQIKECQELGVLVDRDDQGVLLQIFTKPVGDRPTLFLEIIQRIGCMEKDEKGQEYQKGGCGGFGKGNFSQLFKSIEDYEKSLEAKQAAAAAAAQGS
# modifications: Zea mays
# Tests used:
# maize cell chloroplasts = assay: Agro-infiltration of maize leaves with G. max HPPD N-terminus AcGFP1 fusions; assay type: cell-based, Zea mays; settings: 4-week old maize seedlings, three days after infiltration
# Text: Vectors were constructed in which a portion of the gene coding for the G. max HPPD N-terminus was fused to a gene encoding Aequorea coerulescens green fluorescent protein 1 (AcGFP1) and inserted into a binary expression vector under control of the Arabidopsis Ubiquitin 10 promoter (Norris et al. (1993) Plant Mol. Biol. 21, 895-906) and terminated with the Glycine max Kunitz trypsin inhibitor 3 terminator region (NCBI accession S45092). Both genes were between left and right border sequences from Agrobacterium. One fusion contained amino acid residues 1-86 of the long Gm HPPD protein (SEQ ID NO:57). […]
# A positive control vector was identical except that the AcGFP1 coding region was fused to the 6H1 synthetic chloroplast targeting peptide (U.S. Pat. No. 7,345,143), while a negative control was AcGFP1 with no targeting sequence. […] Agro-infiltration is a well described method (Kapila et. al. (1997) Plant Science, 122:101-108) of introducing an Agrobacterium cell suspension to plant cells of intact tissues so that reproducible infection and subsequent plant trans-gene expression may be measured or studied.
# Leaves of 4-week old maize seedlings were infiltrated with the Agrobacterium, and examined by fluorescence microscopy three days later (Nikon Eclipse 80i, Narrow band-pass GFP filter set). […]
# [1] = system: G. max leaf cell chloroplasts; assay: Transient expression of Gm HPPD-AcGFP fusion proteins in soy leaf discs; assay type: cell-based, Glycine max
# Text: Transient expression experiments indicate that the long HPPD protein (SEQ ID NO: 57) is imported to chloroplasts, while the short protein (SEQ ID NO: 59) remains in the cytosol. Plant expression cassettes were constructed fusing portions of the N terminus of Gm HPPD to an Aequorea coerulescens green fluorescent protein 1 (AcGFP1). One fusion contained amino acid residues 1-86 of the long Gm HPPD protein. Another contained residues 1-44 of the short HPPD protein (this corresponds to residues […] of the long protein). These cassettes were incorporated into binary vectors which also contained an untargeted DsRed2 expression cassette and introduced into A. tumefaciens strain AGL 1 and then used to infect leaf discs of G. max as described in Example 3 of U.S. Utility application Ser. No. 13/209,017, now issued U.S. Pat. No. 8,993,837, entitled “Chimeric Promoter and Methods of Use”, filed concurrently herewith and herein incorporated by reference in its entirety.
# maize leaf chloroplasts = assay: Agro-infiltration of maize leaves with DsRed2 fusions, fluorescence microscopy; assay type: cell-based, Zea mays; settings: Example 16, assayed as described in Example 4
# Text: A vector was constructed in which the portion of the maize HPPD (SEQ ID NO: 9) gene coding for the N-terminal 50 amino acids was fused to the gene coding for Discosoma sp. red fluorescence protein 2 (DsRed2) and inserted into a binary expression vector under control of the maize Rubisco activase promoter (Liu et al. (1996) Plant Physiol. 112(1): 43-51) and terminated with the Solanum tuberosum proteinase inhibitor II (pinII) terminator region (An et al. (1989) Plant Cell 1:115-122) with a hygromycin selection cassette. Both genes are between left and right border sequences from Agrobacterium.
# A positive control vector was identical to the vector having the N-terminal 50 amino acids of maize HPPD described above except that the HPPD CTP was removed and the DsRed2 insert was fused to the chloroplast targeting peptide of Zea maize rubisco activase, while a negative control was DsRed2 with no targeting sequence. […] Agro-infiltration is a well described method (Kapila et. al. (1997) Plant Science, 122:101-108) of introducing an Agrobacterium cell suspension to plant cells of intact tissues so that reproducible infection and subsequent plant derived trans-gene expression may be measured or studied.
# Leaves of 3-week old maize seedlings were infiltrated with the Agrobacterium, and examined by fluorescence microscopy two days later (Nikon Eclipse 80i, DsRed filter set). […]
# sorghum leaves plastids = assay: Agro-infiltration of sorghum leaves with DsRed fusions; assay type: cell-based
# [2] = system: stably transformed soybean cells; assay: Immunogold localization of maize HPPD in stably transformed soybean leaf; assay type: cell-based, Glycine max; settings: anti-maize HPPD antibody
# Text: Polyclonal antibodies were raised in rabbits against recombinant maize HPPD protein purified by nickel chelate affinity chromatography. Anti-HPPD antibodies were purified from serum by affinity chromatography on immobilized maize HPPD, and further purified by passage through a column of immobilized Rubisco, to remove a small fraction of antibodies that reacted with both HPPD and Rubisco. Leaf punches taken form stably transformed soybean plants expressing a gene encoding the maize HPPD protein (SEQ ID NO: 10) driven by an SCP1 synthetic promoter (U.S. Pat. No. 6,072,050) were fixed in 2% paraformaldehyde, 0.25% glutaraldehyde in 100 mM Na phosphate buffer, pH 7.0, for 3 hours at room temperature, dehydrated by passage through progressively higher concentrations of ethanol, embedded in LR White resin and cured at 55° C. for 48 hours. Sections (0.9 microns) were transferred onto Excell Adhesion glass microscope slides (Electron Microscopy Sciences). Immunolocalization was performed with the primary antibody being the double-purified anti-maize HPPD (1:200) and the secondary antibody goat anti-rabbit F(ab′) conjugated with gold particles (Aurion ultrasmall gold). Gold labeling was followed by silver enhancement (Aurion R-GENT SE-EM). […] Material was analyzed with a YAG detector for backscatter signal in a Hitachi 54800 scanning electron microscope. […]
# maize HPPD = assay: HPPD activity assay of maize HPPD variants expressed in E. coli; assay type: biochemical, Zea mays; settings: N-terminal truncated variants of maize wild-type HPPD, single measurement
# Text: Organellar targeting sequences are usually cleaved after the peptide enters the organelle. Previous investigators (Fritze I et al. (2004) Plant Physiology 134:1388-1400; Yang C et al. (2004) Biochemistry 43: 10414-10423) have shown that native mature maize HPPD begins at either ala17 or ala23. Variants of the wild-type maize HPPD protein coding region were created with various lengths of the amino terminus removed. The sequences were expressed in E. coli and tested for activity and stability. In each case a methionine start codon was added to the truncated sequence. Proteins were designated by the position of their N-terminal amino acid (all alanines) as in SEQ ID NO: 9. All N-terminal truncated proteins retained the HPPD activity. […] Assaying HPPD activity was carried out as described in Example 1 of Provisional Application 61/401,456, filed Aug. 13, 2010, Compositions and Methods Comprising Sequences having Hydroxyphenylpyruvate Dioxygenase (HPPD) Activity, herein incorporated by reference in it entirety.
molecule,measurement,setting,value
residues 42-86: residues 1-44 of the short Gm HPPD protein (42-86 of the long protein) fused to AcGFP1,AcGFP marker protein localization,maize cell chloroplasts,delivered the protein to the cytosol
same,AcGFP green fluorescence localization,[1],green fluorescence is visible only in the cytoplasm
MPPTPTTAAATGAGAAAAVTPEHAAFRLVGHRRFVRFNPRSDRFHTLAFHHVE [53 amino acid consensus sequence],DsRed localization,maize leaf chloroplasts,effectively targeted DsRed to maize plastids
same,DsRed reporter localization,sorghum leaves plastids,efficiently targeted the DsRed reporter protein to plastids
B1,gold labeling localization,[2],"mainly in cytosol and nuclei, but also in chloroplasts"
B2,kcat,maize HPPD,2.77 s⁻¹
